BindingDB's records for doi:10.7270/Q24T6GSH (The Scripps Research Institute Molecular Screening Center, 2007)

Target: T1, Isoform 2 of Nuclear receptor ROR-alpha (Alpha-2) (Homo sapiens, UniProt P35398)
T1 sequence (P35398 whole entry): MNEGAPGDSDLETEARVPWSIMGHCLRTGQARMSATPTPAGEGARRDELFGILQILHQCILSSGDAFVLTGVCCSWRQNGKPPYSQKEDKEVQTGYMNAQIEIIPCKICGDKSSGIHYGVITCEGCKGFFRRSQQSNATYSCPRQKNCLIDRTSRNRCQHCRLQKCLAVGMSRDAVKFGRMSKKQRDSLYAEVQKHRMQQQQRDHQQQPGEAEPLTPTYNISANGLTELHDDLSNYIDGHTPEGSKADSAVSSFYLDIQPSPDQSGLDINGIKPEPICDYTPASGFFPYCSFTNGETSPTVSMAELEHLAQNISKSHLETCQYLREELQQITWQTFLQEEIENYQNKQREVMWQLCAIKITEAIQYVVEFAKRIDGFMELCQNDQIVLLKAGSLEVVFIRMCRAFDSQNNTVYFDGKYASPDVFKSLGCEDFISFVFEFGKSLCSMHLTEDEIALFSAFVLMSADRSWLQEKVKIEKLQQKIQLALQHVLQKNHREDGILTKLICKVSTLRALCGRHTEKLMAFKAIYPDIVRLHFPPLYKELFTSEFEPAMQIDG
Assay: RORA Gal4 reporter activation in CHO-K1 cells, dose response, counter-screen for SF-1 activator project, cell-based, Gal4-RORA LBD, luciferase luminescence (AID 675)

EC50 [nM] | EC50 (inactive by the depositor's call) [nM] | SMILES
749 |  | COc1ccc(C(=O)CC=Nc2cccc(C)n2)cc1OC
400 |  | CC(=O)c1c(C)[nH]c(C(=O)Nc2ccc3c(c2)OCCO3)c1C
766 |  | COc1ccc2c(c1OC)C(=O)N1c3ccccc3SC21 (stereo not given) [1,2-dimethoxy-4bH-isoindolo[1,2-b][1,3]benzothiazol-11-one]
1230 |  | O=C(CSc1ccccn1)c1ccc2c(c1)OCO2 [1-(1,3-benzodioxol-5-yl)-2-(2-pyridinylthio)ethanone]
615 |  | O=C(COc1ncnc2ccccc12)c1ccc2c(c1)OCCO2 [1-(2,3-dihydro-1,4-benzodioxin-6-yl)-2-(4-quinazolinyloxy)ethanone]
1990 |  | CCCn1c(C)cc(C(=O)COc2ncnc3sccc23)c1C [1-(2,5-dimethyl-1-propyl-3-pyrrolyl)-2-(4-thieno[2,3-d]pyrimidinyloxy)ethanone]
1650 |  | N#CCc1ccc(NC(=O)Nc2cccc(Cl)c2)cc1 [1-(3-chlorophenyl)-3-[4-(cyanomethyl)phenyl]urea]
> 407 |  | CN(C)c1ccc(NC(=O)Nc2cccc(Cl)c2)cc1 [1-(3-chlorophenyl)-3-[4-(dimethylamino)phenyl]urea]
2290 |  | Clc1ccc(-n2ncc3c(NCc4ccccn4)ncnc32)cc1 [1-(4-chlorophenyl)-N-(2-pyridinylmethyl)-4-pyrazolo[3,4-d]pyrimidinamine]
> 1220 |  | COc1ccc2nc(Nc3nc(C)c(C(C)=O)s3)sc2c1 [1-[2-[(6-methoxy-1,3-benzothiazol-2-yl)amino]-4-methyl-1,3-thiazol-5-yl]ethanone]
> 11000 |  | O=C(Cc1ccccc1)n1nc(-c2ccccc2)nc1NCc1ccco1 [1-[5-(2-furanylmethylamino)-3-phenyl-1,2,4-triazol-1-yl]-2-phenylethanone]
 | 10200 | Fc1cnc(N2CCOCC2)nc1N1CCc2ccccc21 [1-[5-fluoro-2-(4-morpholinyl)-4-pyrimidinyl]indoline]
1720 |  | CCOC(=O)C1CCN(S(=O)(=O)c2ccc(-c3nc4ccccc4s3)s2)CC1 [1-[[5-(1,3-benzothiazol-2-yl)-2-thienyl]sulfonyl]isonipecotic acid ethyl ester]
1570 |  | COc1ccc2c(c1)CCc1c(C(=O)N3CCCCCC3)noc1-2 [1-azepanyl-(7-methoxy-4,5-dihydrobenzo[g][1,2]benzoxazol-3-yl)methanone]
> 99000 |  | COc1ccc(CNC(=O)NC2CCCCC2)cc1 [1-cyclohexyl-3-[(4-methoxyphenyl)methyl]urea]
3920 |  | COc1ccc(-c2cc(C(=O)N3CCCCC3)no2)cc1OC [1-{[5-(3,4-dimethoxyphenyl)isoxazol-3-yl]carbonyl}piperidine]
897 |  | Cc1cc(C(=O)OCC(=O)N2CCc3ccccc32)c(C)o1 [2,5-dimethyl-3-furancarboxylic acid [2-(2,3-dihydroindol-1-yl)-2-oxoethyl] ester]
> 136 |  | CC(C)(C)n1ncc2c(=O)n(CC(=O)NCc3ccccc3Cl)cnc21 [2-(1-tert-butyl-4-keto-pyrazolo[3,4-d]pyrimidin-5-yl)-N-(2-chlorobenzyl)acetamide]
11000 |  | COc1cc(N2CCCC2)c(OC)cc1C=c1sc2nc3ccccc3n2c1=O [2-(2,5-dimethoxy-4-pyrrolidino-benzylidene)thiazolo[3,2-a]benzimidazol-1-one]
5820 |  | CCn1c(SCC(=O)c2cccs2)nnc1-c1ccco1 [2-(4-Ethyl-5-furan-2-yl-4H-[1,2,4]triazol-3-ylsulfanyl)-1-thiophen-2-yl-ethanone]

EC50 [nM] | EC50 (inactive by the depositor's call) [nM] | SMILES
2220 |  | CN(C)c1oc(-c2ccc(OCc3ccccc3)cc2)nc1C#N [2-(4-benzoxyphenyl)-5-(dimethylamino)oxazole-4-carbonitrile]
886 |  | CCOc1ccc(N2C(=O)c3ccccc3C2O)cc1 (stereo not given) [2-(4-ethoxyphenyl)-3-hydroxy-3H-isoindol-1-one]
> 11000 |  | O=C(CSc1nc2ccccc2o1)Nc1nc2ccccc2s1 [2-(Benzooxazol-2-ylsulfanyl)-N-benzothiazol-2-yl-acetamide]
> 11000 |  | Cc1cccc(-n2ccnc2SCC(=O)Nc2nccs2)c1 [2-[1-(3-methylphenyl)imidazol-2-yl]sulfanyl-N-(1,3-thiazol-2-yl)acetamide]
609 |  | C=CCn1c(C)cc(C(=O)CSc2nc(O)c3ccccc3n2)c1C [2-[2-(2,5-dimethyl-1-prop-2-enyl-pyrrol-3-yl)-2-oxidanylidene-ethyl]sulfanyl-1H-quinazolin-4-one]
595 |  | OCCOCCNc1ncnc2c1cnn2-c1ccc(Cl)cc1 [2-[2-[[1-(4-chlorophenyl)-4-pyrazolo[3,4-d]pyrimidinyl]amino]ethoxy]ethanol]
933 |  | CCOC(=O)CSc1nc2ccccc2c(=O)n1NC(=O)c1ccccc1 [2-[(3-benzamido-4-keto-quinazolin-2-yl)thio]acetic acid ethyl ester]
> 407 |  | CCc1nnc(NC(=O)CSc2nc3c(cc2C#N)CCC3)s1 [2-[(3-cyano-1-pyrindan-2-yl)thio]-N-(5-ethyl-1,3,4-thiadiazol-2-yl)acetamide]
1710 |  | CCOC(=O)CSc1nc(-c2ccncc2)ccc1C#N [2-[(3-cyano-6-pyridin-4-yl-2-pyridinyl)thio]acetic acid ethyl ester]
3920 |  | Cc1csc2nc(CSc3nc4ccccc4o3)cn12 [2-[(3-methyl-6-imidazo[2,1-b]thiazolyl)methylthio]-1,3-benzoxazole]
6790 |  | Nn1c(SCC(=O)Nc2ccc(F)cc2F)nnc1-c1cccnc1 [2-[(4-amino-5-pyridin-3-yl-1,2,4-triazol-3-yl)sulfanyl]-N-(2,4-difluorophenyl)acetamide]
1230 |  | CCc1nnc(NC(=O)CSc2nc(C)c3c(c2C#N)CCCC3)s1 [2-[(4-cyano-1-methyl-5,6,7,8-tetrahydroisoquinolin-3-yl)sulfanyl]-N-(5-ethyl-1,3,4-thiadiazol-2-yl)acetamide]
> 99000 |  | O=C1CCCC(=O)C1=CNc1ccc(O)cc1 [2-[(4-hydroxyanilino)methylidene]cyclohexane-1,3-dione]
5650 |  | CCOC(=O)CSc1nc(-c2ccc3c(c2)OCO3)ccc1C#N [2-[[6-(1,3-benzodioxol-5-yl)-3-cyano-2-pyridinyl]thio]acetic acid ethyl ester]
3190 |  | O=C(CNc1ccccc1)Nc1ccc(F)cc1 [2-anilino-N-(4-fluorophenyl)acetamide]
112 |  | Cc1nc2sc(-c3ccccc3)cc2c(=O)n1-n1cccc1 [2-methyl-6-phenyl-3-(1-pyrrolyl)-4-thieno[2,3-d]pyrimidinone]
786 |  | Cc1ccc(C(=O)Nc2nnc(-c3cccs3)s2)cc1C [3,4-dimethyl-N-(5-thiophen-2-yl-1,3,4-thiadiazol-2-yl)benzamide]
1630 |  | Cc1ccc(-n2c(C)cc(C(=O)COC(=O)c3c(C)noc3C)c2C)cc1 [3,5-dimethyl-4-isoxazolecarboxylic acid [2-[2,5-dimethyl-1-(4-methylphenyl)-3-pyrrolyl]-2-oxoethyl] ester]
> 33000 |  | COc1cc(C2c3c(c(O)n(-c4ccccc4)c3O)ON2c2ccccc2)ccc1O (stereo not given) [3-(3-methoxy-4-oxidanyl-phenyl)-2,5-diphenyl-3a,6a-dihydro-3H-pyrrolo[3,4-d][1,2]oxazole-4,6-dione]
> 407 |  | COc1ccc2nc3sc(C(=O)NCc4cccs4)c(N)c3cc2c1 [3-Amino-6-methoxy-thieno[2,3-b]quinoline-2-carboxylic acid (thiophen-2-ylmethyl)-amide]
